Source: ChEMBL document CHEMBL3286379, “Design and synthesis of pyrimidine molecules endowed with thiazolidin-4-one as new anticancer agents” (Eur J Med Chem, 2014)

How the values were obtained:
Format in all cases: functional
[1] = tested on: MCF7; experiment: Growth inhibition of human MCF7 cells assessed as cell growth at 10 uM after 48 hrs by sulforhodamine B assay relative to control; conditions: MCF7, 48 h, read-out: Activity
[2] = tested on: MDA-MB-231; experiment: Growth inhibition of human MDA-MB-231 cells assessed as cell growth at 10 uM after 48 hrs by sulforhodamine B assay relative to control; conditions: MDA-MB-231, 48 h, read-out: Activity
[3] = tested on: MDA-MB-435; experiment: Growth inhibition of human MDA-MB-435 cells assessed as cell growth at 10 uM after 48 hrs by sulforhodamine B assay relative to control; conditions: MDA-MB-435, 48 h, read-out: Activity
[4] = tested on: CCRF-CEM; experiment: Growth inhibition of human CCRF-CEM cells assessed as cell growth at 10 uM after 48 hrs by sulforhodamine B assay relative to control; conditions: read-out: Activity
[5] = tested on: NCI-H460; experiment: Growth inhibition of human NCI-H460 cells assessed as cell growth at 10 uM after 48 hrs by sulforhodamine B assay relative to control; conditions: NCI-H460, 48 h, read-out: Activity
[6] = Growth inhibition of human SF539 cells assessed as cell growth at 10 uM after 48 hrs by sulforhodamine B assay relative to control; conditions: SF-539, 48 h, read-out: Activity
[7] = tested on: HOP-62; experiment: Growth inhibition of human HOP62 cells assessed as cell growth at 10 uM after 48 hrs by sulforhodamine B assay relative to control; conditions: HOP-62, 48 h, read-out: Activity
[8] = tested on: CAKI-1; experiment: Growth inhibition of human CAKI-1 cells assessed as cell growth at 10 uM after 48 hrs by sulforhodamine B assay relative to control; conditions: CAKI-1, 48 h, read-out: Activity
[9] = Growth inhibition of human Hs 578T cells assessed as cell growth at 10 uM after 48 hrs by sulforhodamine B assay relative to control; conditions: read-out: Activity
[10] = tested on: PC-3; experiment: Growth inhibition of human PC3 cells assessed as cell growth at 10 uM after 48 hrs by sulforhodamine B assay relative to control; conditions: PC-3, 48 h, read-out: Activity
[11] = Growth inhibition of human UO31 cells assessed as cell growth at 10 uM after 48 hrs by sulforhodamine B assay relative to control; conditions: UO-31, 48 h, read-out: Activity
[12] = Growth inhibition of human HOP92 cells assessed as cell growth at 10 uM after 48 hrs by sulforhodamine B assay relative to control; conditions: HOP-92, 48 h, read-out: Activity
[13] = tested on: SF-268; experiment: Growth inhibition of human SF268 cells assessed as cell growth at 10 uM after 48 hrs by sulforhodamine B assay relative to control; conditions: SF-268, 48 h, read-out: Activity
[14] = tested on: SW-620; experiment: Growth inhibition of human SW620 cells assessed as cell growth at 10 uM after 48 hrs by sulforhodamine B assay relative to control; conditions: SW-620, 48 h, read-out: Activity
[15] = tested on: NCI-H226; experiment: Growth inhibition of human NCI-H226 cells assessed as cell growth at 10 uM after 48 hrs by sulforhodamine B assay relative to control; conditions: NCI-H226, 48 h, read-out: Activity
[16] = tested on: SK-MEL-5; experiment: Growth inhibition of human SK-MEL-5 cells assessed as cell growth at 10 uM after 48 hrs by sulforhodamine B assay relative to control; conditions: SK-MEL-5, 48 h, read-out: Activity
[17] = tested on: Malme-3M; experiment: Growth inhibition of human MALME-3M cells assessed as cell growth at 10 uM after 48 hrs by sulforhodamine B assay relative to control; conditions: read-out: Activity
[18] = tested on: T47D; experiment: Growth inhibition of human T47D cells assessed as cell growth at 10 uM after 48 hrs by sulforhodamine B assay relative to control; conditions: read-out: Activity
[19] = tested on: NCI-H23; experiment: Growth inhibition of human NCI-H23 cells assessed as cell growth at 10 uM after 48 hrs by sulforhodamine B assay relative to control; conditions: NCI-H23, 48 h, read-out: Activity
[20] = tested on: RPMI-8226; experiment: Growth inhibition of human RPMI8226 cells assessed as cell growth at 10 uM after 48 hrs by sulforhodamine B assay relative to control; conditions: RPMI-8226, 48 h, read-out: Activity
[21] = Growth inhibition of human NCI-ADR-RES cells assessed as cell growth at 10 uM after 48 hrs by sulforhodamine B assay relative to control; conditions: read-out: Activity
[22] = tested on: K562; experiment: Growth inhibition of human K562 cells assessed as cell growth at 10 uM after 48 hrs by sulforhodamine B assay relative to control; conditions: K562, 48 h, read-out: Activity
[23] = tested on: U-251; experiment: Growth inhibition of human U251 cells assessed as cell growth at 10 uM after 48 hrs by sulforhodamine B assay relative to control; conditions: U-251, 48 h, read-out: Activity
[24] = tested on: HT-29; experiment: Growth inhibition of human HT-29 cells assessed as cell growth at 10 uM after 48 hrs by sulforhodamine B assay relative to control; conditions: HT-29, 48 h, read-out: Activity
[25] = tested on: A549; experiment: Growth inhibition of human A549/ATCC cells after 48 hrs by sulforhodamine B assay; conditions: A549, 48 h
[26] = tested on: RPMI-8226; experiment: Growth inhibition of human RPMI8226 cells after 48 hrs by sulforhodamine B assay; conditions: RPMI-8226, 48 h
[27] = tested on: CAKI-1; experiment: Growth inhibition of human CAKI-1 cells after 48 hrs by sulforhodamine B assay; conditions: CAKI-1, 48 h
[28] = tested on: HCT-116; experiment: Growth inhibition of human HCT116 cells after 48 hrs by sulforhodamine B assay; conditions: HCT-116, 48 h
[29] = tested on: PC-3; experiment: Growth inhibition of human PC3 cells after 48 hrs by sulforhodamine B assay; conditions: PC-3, 48 h
[30] = Growth inhibition of human LOXIMVI cells after 48 hrs by sulforhodamine B assay; conditions: LOX IMVI
[31] = read-out: LC50 (the source's name)
[32] = read-out: pLC50 (the source's name) (converted)

O=C1N/C(=N/c2nc(-c3ccccc3Cl)cc(-c3ccc(Cl)cc3Cl)n2)S/C1=C/c1ccc(Cl)cc1
growth at 10 µM [1]: 50.4%
growth at 10 µM [2]: 63.2%
growth at 10 µM [3]: 32.1%
growth at 10 µM [4]: 75.5%
growth at 10 µM [5]: 87.2%
growth at 10 µM [6]: 97.3%
growth at 10 µM [7]: 80.2%
growth at 10 µM [8]: 97.2%
growth at 10 µM [9]: 91.9%
growth at 10 µM [10]: 79%
growth at 10 µM [11]: 55.2%
growth at 10 µM [12]: 55.1%
growth at 10 µM [13]: 90.9%
growth at 10 µM [14]: 76.6%
growth at 10 µM [15]: 98.5%
growth at 10 µM [16]: 83.6%
growth at 10 µM [17]: 91.5%
growth at 10 µM [18]: 60.9%
growth at 10 µM [19]: 76%
growth at 10 µM [20]: 83.6%
growth at 10 µM [21]: 90.1%
growth at 10 µM [22]: 37.6%
growth at 10 µM [23]: 89.4%
growth at 10 µM [24]: 103%

O=C1CS/C(=N\c2nc(-c3ccccc3Cl)cc(-c3ccc(Cl)cc3Cl)n2)N1
growth at 10 µM [1]: 87.2%
growth at 10 µM [2]: 88.8%
growth at 10 µM [3]: 78.5%
growth at 10 µM [4]: 85.9%
growth at 10 µM [5]: 103%
growth at 10 µM [6]: 103%
growth at 10 µM [7]: 87.5%
growth at 10 µM [8]: 88.6%
growth at 10 µM [9]: 97.7%
growth at 10 µM [10]: 83.8%
growth at 10 µM [11]: 58%
growth at 10 µM [12]: 84.6%
growth at 10 µM [13]: 92.2%
growth at 10 µM [14]: 92.9%
growth at 10 µM [15]: 104%
growth at 10 µM [16]: 103%
growth at 10 µM [17]: 87.3%
growth at 10 µM [18]: 86.5%
growth at 10 µM [19]: 90%
growth at 10 µM [20]: 99.6%
growth at 10 µM [21]: 98.1%
growth at 10 µM [22]: 79.5%
growth at 10 µM [23]: 105%
growth at 10 µM [24]: 107%

Nc1nc(-c2ccccc2Cl)cc(-c2ccc(Cl)cc2Cl)n1
GI50 ([25]; read-out: GI50): 4.81 µM
CC50 [25, 31]: > 100 µM
TGI ([25]; read-out: TGI): > 100 µM
GI50 ([25]; read-out: pGI50 (converted)): 4.79 µM
CC50 [25, 32]: > 100 µM
TGI ([25]; read-out: pTGI): > 100 µM
growth at 10 µM [1]: 45.7%
growth at 10 µM [2]: 65%
growth at 10 µM [3]: 0.07%
growth at 10 µM [4]: 57.5%
growth at 10 µM [5]: 49.8%
growth at 10 µM [6]: 72.2%
GI50 ([26]; read-out: GI50): 3.1 µM
CC50 [26, 31]: > 100 µM
TGI ([26]; read-out: TGI): 17.6 µM
GI50 ([26]; read-out: pGI50 (converted)): 3.09 µM
CC50 [26, 32]: > 100 µM
TGI ([26]; read-out: pTGI (converted)): 17.4 µM
GI50 ([27]; read-out: GI50): 9.27 µM
CC50 [27, 31]: > 100 µM
TGI ([27]; read-out: TGI): > 100 µM
GI50 ([27]; read-out: pGI50 (converted)): 9.33 µM
CC50 [27, 32]: > 100 µM
TGI ([27]; read-out: pTGI): > 100 µM
GI50 ([28]; read-out: GI50): 4.27 µM
CC50 [28, 31]: > 100 µM
TGI ([28]; read-out: TGI): > 100 µM
GI50 ([28]; read-out: pGI50 (converted)): 4.27 µM
CC50 [28, 32]: > 100 µM
TGI ([28]; read-out: pTGI): > 100 µM
growth at 10 µM [7]: 76.2%
growth at 10 µM [8]: 68%
growth at 10 µM [9]: 61.9%
growth at 10 µM [10]: 74.2%
growth at 10 µM [11]: 62.5%
growth at 10 µM [12]: 76.2%
growth at 10 µM [13]: 65.9%
growth at 10 µM [14]: 39%
GI50 ([29]; read-out: GI50): 5.43 µM
CC50 [29, 31]: > 100 µM
TGI ([29]; read-out: TGI): > 100 µM
GI50 ([29]; read-out: pGI50 (converted)): 5.37 µM
CC50 [29, 32]: > 100 µM
TGI ([29]; read-out: pTGI): > 100 µM
growth at 10 µM [15]: 87.7%
growth at 10 µM [16]: 75.2%
growth at 10 µM [17]: 86.6%
growth at 10 µM [18]: 63.7%
growth at 10 µM [19]: 75.4%
growth at 10 µM [20]: 35.2%
growth at 10 µM [21]: 79.8%
growth at 10 µM [22]: 27.3%
growth at 10 µM [23]: 65%
growth at 10 µM [24]: 36.6%
GI50 ([30]; read-out: GI50): 4.89 µM
CC50 [30, 31]: > 100 µM
TGI ([30]; read-out: TGI): > 100 µM
GI50 ([30]; read-out: pGI50 (converted)): 4.9 µM
CC50 [30, 32]: > 100 µM
TGI ([30]; read-out: pTGI): > 100 µM
